Source: ChEMBL document CHEMBL5385954, “Pepticinnamins N, O, and P, Nonribosomal Peptides from the Soil-Derived Streptomyces mirabilis P8-A2” (J Nat Prod, 2024)

Experiments:
[1] = tested on: Bacillus subtilis; assay: Antimicrobial activity against Bacillus subtilis incubated for 12 hrs by agar diffusion method; type: functional
[2] = tested on: Staphylococcus aureus; assay: Antimicrobial activity against Staphylococcus aureus 8325 incubated for 12 hrs by agar diffusion method; type: functional
[3] = tested on: Pseudomonas aeruginosa; assay: Antimicrobial activity against Pseudomonas aeruginosa PAO1 incubated for 12 hrs by agar diffusion method; type: functional
[4] = tested on: LNCaP C4-2B; assay: Cytotoxicity against drug resistant human LNCaP C4-2B cells assessed as inhibition of cell growth incubated for 72 hrs by CellTox Green cytotoxicity assay; type: functional, cell-based
[5] = tested on: LNCaP; assay: Cytotoxicity against drug resistant human LNCaP cells assessed as inhibition of cell growth incubated for 72 hrs by CellTox Green cytotoxicity assay; type: functional, cell-based
[6] = tested on: Candida albicans; assay: Antimicrobial activity against Candida albicans IBT 656 incubated for 24 hrs by broth dilution method; type: functional
[7] = tested on: LNCaP C4-2B; assay: Cytotoxicity against human LNCaP C4-2B cells assessed as inhibition of cell growth incubated for 72 hrs by CellTox Green cytotoxicity assay; type: functional, cell-based
[8] = tested on: LNCaP; assay: Cytotoxicity against human LNCaP cells assessed as inhibition of cell growth incubated for 72 hrs by CellTox Green cytotoxicity assay; type: functional, cell-based

| Compound | MIC [1] [µg/mL] | MIC [2] [µg/mL] | MIC [3] [µg/mL] | IC50 [4] [µM] | IC50 [5] [µM] | MIC [6] [µg/mL] | IC50 [7] [µM] | IC50 [8] [µM] |
| --- | --- | --- | --- | --- | --- | --- | --- | --- |
| CCC/C=C\c1ccccc1/C=C/C(=O)N[C@H](Cc1ccc(O)cc1)C(=O)N(C)[C@@H](Cc1ccc(OC)c(O)c1Cl)C(=O)N(C)[C@@H](Cc1ccccc1)C(=O)O | > 50 | > 50 | > 50 | > 10 | > 10 | > 50 | > 10 | > 10 |
| CCC/C=C\c1ccccc1/C=C/C(=O)N[C@H](Cc1ccc(O)cc1)C(=O)N(C)[C@@H](Cc1ccc(OC)c(O)c1)C(=O)N(C)[C@@H](Cc1ccccc1)C(=O)OC[C@H]1NC(=O)CNC1=O | > 50 | > 50 | > 50 | > 10 | > 10 | > 50 | > 10 | > 10 |
| CCC/C=C\c1ccccc1/C=C/C(=O)N[C@H](Cc1ccc(O)cc1)C(=O)N(C)[C@@H](Cc1ccc(OC)c(O)c1Cl)C(=O)N(C)[C@@H](Cc1ccccc1)C(=O)OC[C@H]1NC(=O)CNC1=O | > 50 | > 50 | > 50 | > 10 | > 10 | > 50 | > 10 | > 10 |
| CCC/C=C\c1ccccc1/C=C/C(=O)N[C@H](Cc1ccc(O)cc1)C(=O)N(C)[C@@H](Cc1ccc(OC)c(O)c1)C(=O)N(C)[C@@H](Cc1ccccc1)C(=O)O | > 50 | > 50 | > 50 | – | – | > 50 | – | – |
